Results reported in patent US8883789B2, “Piperazine derivatives and their use as positive allosteric modulators of mGluR5 receptors” (Boehringer Ingelheim International GmbH, priority 2011, dated 2014).

Target: T1, human recombinant mGluR5 (Homo sapiens, UniProt P41594)
T1 construct: expressed in transfected cells; hygromycin and geneticin selection
Assay: positive modulation of mGluR5, calcium based FLIPR assay
Conditions: HEK 293 cell line expressing human recombinant mGluR5; Ca2+ peak height after glutamate at approximately 5% basal stimulation; nonlinear regression
Procedure: The positive modulation of mGluR5 is measured in a HEK 293 cell line expressing human recombinant mGluR5 and is detected with calcium based FLIPR assay. The cells are cultured with DMEM supplemented with 10% FCS, 2 μg/mL tetracycline, 100 μg/mL hygromycin and 500 μg/mL geneticin. The cell culture media is exchanged for tetracycline-free cell culture media 3-7 days before the assay. One day before the assay the cell culture medium is exchanged to DMEM without glutamine and phenol red and supplemented with 10% FCS, 100 μg/mL hygromycin and 500 μg/mL geneticin. On the assay day, the medium of the subconfluent cultures is removed and the cells are detached by addition of 2.5 ml EDTA (0.02%) per 175 cm2 culture flask for 1 minute. The cells are resuspend in Ringer solution (140 mM NaCl, 5 mM KCl, 2.5 mM CaCl2, 1.5 mM MgCl2, 5 mM Glucose, 10 mM Hepes; adjusted to pH 7.4 with NaOH), pooled and Ringer solution added to adjust the volume to 50 mL. The cell suspension is centrifuged for […] at 1500 U/min (425 g). The supernatant is removed and the cells washed a second time with 50 ml fresh Ringer solution and centrifuged again as before. The supernatant is again removed and the pellet resuspended in Ringer solution to 1,000,000 cells/ml (1×10^6 cells/mL). The cells are plated onto BD BioCoat Poly-D-Lysine 384 well plates (20.000 cells/well; 20 μl/well). The lid covered plates are then incubated until use at 37° C./10% CO2. For dye loading, 20 μl of Calcium-4 assay kit solution (prepared according to the manufacturer's description in Ringer solution) are added to the cells and the plates are incubated for 80 min 37° C. and then 10 min at room temperature.
Controls, Compound Dilution and Assay Execution:
Each assay plate contained wells with “high” and “low” controls:
Low controls 1% DMSO/ringer solution+basal glutamate activation (defined as 100% CTL).
High controls 10 μM CDPPB+basal glutamate activation (defined as 200% CTL).
Test compounds are dissolved and diluted in DMSO to 100-fold the desired concentrations. In a second step, the compounds are diluted in Ringer solution such that the compounds are 4-fold more concentrated than the desired final assay concentration. The final DMSO concentration was 1%.
20 μl of each compound solution are then transferred to the assay plate and the Ca2+ kinetic is measured to determine any intrinsic compound activity. After 5 min incubation in the FLIPR device, the second stimulation with 20 μl of glutamate in Ringer solution (glutamate concentration adjusted to approximately 5% basal stimulation of the maximal possible glutamate effect) is added and the kinetic Ca2+ response of the wells was measured for the modulation effect.
The peak height of the Ca release related fluorescence signal (9-66) is used for the EC50.
The EC50 of the modulation is calculated over a nonlinear regression with GraphPad Prism (Table 1).

T1 sequence (P41594 21-1212): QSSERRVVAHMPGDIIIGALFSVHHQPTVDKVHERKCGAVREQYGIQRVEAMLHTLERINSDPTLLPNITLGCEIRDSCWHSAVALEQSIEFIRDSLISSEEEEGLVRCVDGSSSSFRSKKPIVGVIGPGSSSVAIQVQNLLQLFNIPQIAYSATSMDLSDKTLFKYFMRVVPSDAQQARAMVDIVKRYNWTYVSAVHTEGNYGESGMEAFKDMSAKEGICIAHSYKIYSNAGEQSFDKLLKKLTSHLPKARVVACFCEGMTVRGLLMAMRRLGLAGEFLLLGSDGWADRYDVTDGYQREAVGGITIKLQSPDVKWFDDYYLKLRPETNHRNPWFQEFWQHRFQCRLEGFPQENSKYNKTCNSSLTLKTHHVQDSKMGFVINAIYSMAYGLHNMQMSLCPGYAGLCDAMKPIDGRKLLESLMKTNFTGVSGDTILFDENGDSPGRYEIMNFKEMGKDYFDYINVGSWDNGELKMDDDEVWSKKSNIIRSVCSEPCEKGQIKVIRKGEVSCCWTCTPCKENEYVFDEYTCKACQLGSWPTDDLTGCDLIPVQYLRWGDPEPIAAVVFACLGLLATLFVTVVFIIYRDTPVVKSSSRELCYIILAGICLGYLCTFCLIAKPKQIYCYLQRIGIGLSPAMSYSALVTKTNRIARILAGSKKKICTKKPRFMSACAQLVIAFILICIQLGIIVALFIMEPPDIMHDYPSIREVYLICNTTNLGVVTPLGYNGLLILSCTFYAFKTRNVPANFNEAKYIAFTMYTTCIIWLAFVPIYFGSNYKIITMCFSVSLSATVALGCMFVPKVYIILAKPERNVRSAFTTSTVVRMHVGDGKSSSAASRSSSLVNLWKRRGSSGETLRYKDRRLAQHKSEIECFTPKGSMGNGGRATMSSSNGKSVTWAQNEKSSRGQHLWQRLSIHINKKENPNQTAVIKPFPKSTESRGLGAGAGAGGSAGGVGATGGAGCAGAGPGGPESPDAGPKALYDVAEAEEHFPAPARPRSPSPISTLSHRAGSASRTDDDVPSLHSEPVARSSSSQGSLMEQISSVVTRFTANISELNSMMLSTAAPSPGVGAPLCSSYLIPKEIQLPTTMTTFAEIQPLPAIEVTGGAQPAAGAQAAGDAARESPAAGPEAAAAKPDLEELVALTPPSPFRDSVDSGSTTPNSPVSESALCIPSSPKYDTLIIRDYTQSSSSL

| EC50 [nM] | Compound |
| --- | --- |
| 108 | COCc1c(C(=O)N2CCN(C(=O)c3ncn(-c4ccccc4)n3)C(C)(C)C2)oc2ccccc12 [Example 107] |
| 112 | Cc1c(C(=O)N2CCN(C(=O)c3ncn(-c4ccccc4)n3)C(C)(C)C2)oc2ccc(F)cc12 [Example 108] |
| 128 | COc1cccc(C(=O)N2CCN(C(=O)c3ncn(-c4ccccc4)n3)C(C)(C)C2)n1 [Example 109] |
| 142 | Cc1c(C(=O)N2CCN(C(=O)c3ncn(-c4ccccc4)n3)C(C)(C)C2)n(C)c2ccccc12 [Example 110] |
| 215 | CC1(C)CN(C(=O)c2cccc(-c3ccncc3)n2)CCN1C(=O)c1ncn(-c2ccccc2)n1 [Example 111] |
| 770 | CC1(C)CN(C(=O)c2ccccc2)CCN1C(=O)c1ncn(-c2ccccc2)n1 [Example 112] |
| 76 | Cc1cc(C)cc(C(=O)N2CCN(C(=O)c3ncn(-c4ccccc4)n3)C(C)(C)C2)c1 [Example 113] |
| 233 | CC1(C)CN(C(=O)c2cccc(F)c2)CCN1C(=O)c1ncn(-c2ccccc2)n1 [Example 114] |
| 158 | CC1(C)CN(C(=O)c2cc3ccccc3c(OC3CCCC3)n2)CCN1C(=O)c1ncn(-c2ccccc2)n1 [Example 115] |
| 388 | COC(C)c1cccc(C(=O)N2CCN(C(=O)c3ncn(-c4ccccc4)n3)C(C)(C)C2)c1 (centres unmarked) [Example 116] |
| 208 | Cc1cccc(C(=O)N2CCN(C(=O)c3ncn(-c4ccccc4)n3)C(C)(C)C2)c1 [Example 117] |
| 50 | CC(C)Oc1nc(C(=O)N2CCN(C(=O)c3ncn(-c4ccccc4)n3)C(C)(C)C2)cc2ccccc12 [Example 118] |
| 695 | COc1ccc(C(=O)N2CCN(C(=O)c3ncn(-c4ccccc4)n3)C(C)(C)C2)s1 [Example 119] |
| 43 | CCOc1nc(C(=O)N2CCN(C(=O)c3ncn(-c4ccccc4)n3)C(C)(C)C2)cc2ccccc12 [Example 120] |
| 123 | COc1cc(Cl)cc(C(=O)N2CCN(C(=O)c3ncn(-c4ccccc4)n3)C(C)(C)C2)c1 [Example 121] |
| 213 | COc1cccc(C(=O)N2CCN(C(=O)c3ncn(-c4ccccc4)n3)C(C)(C)C2)c1 [Example 122] |
| 254 | Cn1nc(C(=O)N2CCN(C(=O)c3ncn(-c4ccccc4)n3)C(C)(C)C2)c2ccccc21 [Example 123] |
| 145 | CC(=O)c1cccc(C(=O)N2CCN(C(=O)c3ncn(-c4ccccc4)n3)C(C)(C)C2)n1 [Example 124] |
| 83 | CC1(C)CN(C(=O)c2cc(Cl)cc(Br)c2)CCN1C(=O)c1ncn(-c2ccccc2)n1 [Example 125] |

| EC50 [nM] | Compound |
| --- | --- |
| 91 | CC(C)Oc1cccc(C(=O)N2CCN(C(=O)c3ncn(-c4ccccc4)n3)C(C)(C)C2)c1 [Example 126] |
| 296 | CC1(C)CN(C(=O)c2cccc(-c3cnco3)c2)CCN1C(=O)c1ncn(-c2ccccc2)n1 [Example 127] |
| 88 | CC(C)COc1cccc(C(=O)N2CCN(C(=O)c3ncn(-c4ccccc4)n3)C(C)(C)C2)c1 [Example 129] |
| 31 | CC(C)(C)c1cccc(C(=O)N2CCN(C(=O)c3ncn(-c4ccccc4)n3)C(C)(C)C2)c1 [Example 130] |
| 1870 | CC1(C)CN(C(=O)c2cccc(S(C)(=O)=O)c2)CCN1C(=O)c1ncn(-c2ccccc2)n1 [Example 131] |
| 1810 | COc1ccc(C(=O)N2CCN(C(=O)c3ncn(-c4ccccc4)n3)C(C)(C)C2)o1 [Example 132] |
| 1110 | CC(=O)Nc1ccc2oc(C(=O)N3CCN(C(=O)c4ncn(-c5ccccc5)n4)C(C)(C)C3)c(C)c2c1 [Example 133] |
| 21 | Cc1c(C(=O)N2CCN(C(=O)c3ncn(-c4ccccc4)n3)C(C)(C)C2)oc2ccccc12 [Example 134] |
| 47 | CC1(C)CN(C(=O)c2cccc(C(F)F)c2)CCN1C(=O)c1ncn(-c2ccccc2)n1 [Example 135] |
| 52 | CC1(C)CN(C(=O)c2cccc(C3CC3)c2)CCN1C(=O)c1ncn(-c2ccccc2)n1 [Example 136] |
| 69 | CC1(C)CN(C(=O)c2cccc(C3CCC3)n2)CCN1C(=O)c1ncn(-c2ccccc2)n1 [Example 137] |
| 136 | Cn1ccc2cc(C(=O)N3CCN(C(=O)c4ncn(-c5ccccc5)n4)C(C)(C)C3)ccc21 [Example 138] |
| 314 | CC1(C)CN(C(=O)c2noc(-c3ccccc3)n2)CCN1C(=O)c1ncn(-c2ccccc2)n1 [Example 139] |
| 661 | CC1(C)CN(C(=O)c2coc(C3CC3)n2)CCN1C(=O)c1ncn(-c2ccccc2)n1 [Example 140] |
| 487 | CC1(C)CN(C(=O)c2csc(C3CC3)n2)CCN1C(=O)c1ncn(-c2ccccc2)n1 [Example 141] |
| 122 | Cc1cc2cc(C(=O)N3CCN(C(=O)c4ncn(-c5ccccc5)n4)C(C)(C)C3)ccc2[nH]1 [Example 142] |
| 589 | CC1(C)CN(C(=O)c2ccnc(C(F)(F)F)n2)CCN1C(=O)c1ncn(-c2ccccc2)n1 [Example 143] |
| 23 | CC1(C)CN(C(=O)c2cccc(C3CCCC3)c2)CCN1C(=O)c1ncn(-c2ccccc2)n1 [Example 144] |
| 120 | CC1(C)CN(C(=O)c2cc(Cl)cc(C(F)(F)F)c2)CCN1C(=O)c1ncn(-c2ccccc2)n1 [Example 145] |

| EC50 [nM] | Compound |
| --- | --- |
| 2170 | CCCc1nc2cc(C(=O)N3CCN(C(=O)c4ncn(-c5ccccc5)n4)C(C)(C)C3)cc(C)c2[nH]1 [Example 146] |
| 613 | CC1(C)CN(C(=O)c2nccc(C(F)(F)F)n2)CCN1C(=O)c1ncn(-c2ccccc2)n1 [Example 147] |
| 113 | COc1nc(C(=O)N2CCN(C(=O)c3ncn(-c4ccccc4)n3)C(C)(C)C2)cc2cc(F)c(F)cc12 [Example 148] |
| 353 | CC1(C)CN(C(=O)c2ccc(F)c(Cl)c2)CCN1C(=O)c1ncn(-c2ccccc2)n1 [Example 149] |
| 16 | CC1(C)CN(C(=O)c2cccc(C3CCC3)c2)CCN1C(=O)c1ncn(-c2ccccc2)n1 [Example 151] |
| 291 | CC1(C)CN(C(=O)c2csc(C(F)(F)F)n2)CCN1C(=O)c1ncn(-c2ccccc2)n1 [Example 152] |
| 101 | CC1(C)CN(C(=O)c2cc(Cl)cc(Cl)c2)CCN1C(=O)c1ncn(-c2ccccc2)n1 [Example 153] |
| 157 | Cc1ccc(Cl)cc1C(=O)N1CCN(C(=O)c2ncn(-c3ccccc3)n2)C(C)(C)C1 [Example 154] |
| 134 | CC1(C)CN(C(=O)c2cc(Cl)ccc2F)CCN1C(=O)c1ncn(-c2ccccc2)n1 [Example 155] |
| 232 | CC1(C)CN(C(=O)c2cc(Cl)c(F)c(Cl)c2)CCN1C(=O)c1ncn(-c2ccccc2)n1 [Example 156] |
| 364 | Cc1ccc(-n2cnc(C(=O)N3CCN(C(=O)c4cc(Cl)c5c(c4)OCCO5)CC3(C)C)n2)cc1F [Example 157, [4-(8-Chloro-2,3-dihydro-benzo[1,4]dioxine-6-carbonyl)-2,2-dimethyl-piperazin-1-yl]-[1-(3-fluoro-4-methyl-phenyl)-1H-[1,2,4]triazol-3-yl]-methanone] |
| 441 | COc1nc(C(=O)N2CCN(C(=O)c3ncn(-c4ccc(C)c(F)c4)n3)C(C)(C)C2)cc2ccccc12 [Example 158] |
| 693 | COc1cccc(C(=O)N2CCN(C(=O)c3ncn(-c4ccc(C)c(F)c4)n3)C(C)(C)C2)n1 [Example 159] |
| 207 | COc1nc(C(=O)N2CCN(C(=O)c3ncn(-c4ccc(F)c(C)c4)n3)C(C)(C)C2)cc2ccccc12 [Example 160, [1-(4-Fluoro-3-methyl-phenyl)-1H-[1,2,4]triazol-3-yl]-[4-(1-methoxy-isoquinoline-3-carbonyl)-2,2-dimethyl-piperazin-1-yl]-methanone] |
| 316 | COc1cccc(C(=O)N2CCN(C(=O)c3ncn(-c4ccc(F)c(C)c4)n3)C(C)(C)C2)n1 [Example 161] |
| 475 | Cc1cc(-n2cnc(C(=O)N3CCN(C(=O)c4cc(Cl)c5c(c4)OCCO5)CC3(C)C)n2)ccc1F [Example 162] |
| 1510 | Cc1cc(-n2cnc(C(=O)N3CCN(C(=O)c4c(C)oc5ccccc45)CC3(C)C)n2)ccc1F [Example 163] |
| 19 | CC1(C)CN(C(=O)c2cc(Cl)c3c(c2)OCCO3)CCN1C(=O)c1nnn(-c2ccccc2)n1 [Example 164, [4-(8-Chloro-2,3-dihydro-benzol-[1,4]dioxine-6-carbonyl)-2,2-dimethyl-piperazin-1-yl]-(2-phenyl-2H-tetrazol-5-yl)-methanone] |
